Source: US6709649B1, “RANTES derived peptides with anti-HIV activity” (Fondazione Centro San Raffaele Del Monte Tabor, priority 1998, dated 2004)

What was measured:
[1] = system: HIV-1 CCR5-dependent (PM1BaL) strain; assay: test of inhibition of the formation of syncitia (PM1 cells chronically infected with HIV-1BaL); type: cell-based; settings: PM1 line infected by HIV-1BaL
Excerpt: Some peptides of the invention have been tested to verify their inhibitory activity against HIV virus-1. Two different tests have been used: the “cell-free ” acute infection test and the test of inhibition of the formation of syncitia. The first test evaluates the growth of HIV-1 in primary mononuclear cells pre-activated in vitro and is closer to the natural model of infection. On the other hand, the test of syncitia inhibition evaluates the capability of an inhibitor to inhibit the membrane fusion induced by HIV and it makes use of cells of a continuous line T CD4+ (PM1) chronically infected with an HIV-1 CCR5-dependent (PM1BaL) strain. In both tests, cells were pre-treated with the peptides before exposition to the virus or to 5 the infected cells. Scalar concentrations for each peptide have been tested to calculate the 50% inhibitory dose (ID50), i.e. the dose capable of reducing by 50% the values of the untreated controls. The ID50 values (expressed as micromolar values) of different peptides in the acute infection test are illustrated in the following Table: […]

[2] = system: CCR5-dependent HIV-1BaL strain; assay: "cell-free" acute infection test (growth of HIV-1 in pre-activated primary mononuclear cells, p24 antigen); type: cell-based; settings: at the tested doses
Excerpt: Some peptides of the invention have been tested to verify their inhibitory activity against HIV virus-1. Two different tests have been used: the “cell-free ” acute infection test and the test of inhibition of the formation of syncitia. The first test evaluates the growth of HIV-1 in primary mononuclear cells pre-activated in vitro and is closer to the natural model of infection. On the other hand, the test of syncitia inhibition evaluates the capability of an inhibitor to inhibit the membrane fusion induced by HIV and it makes use of cells of a continuous line T CD4+ (PM1) chronically infected with an HIV-1 CCR5-dependent (PM1BaL) strain. In both tests, cells were pre-treated with the peptides before exposition to the virus or to 5 the infected cells. Scalar concentrations for each peptide have been tested to calculate the 50% inhibitory dose (ID50), i.e. the dose capable of reducing by 50% the values of the untreated controls. The ID50 values (expressed as micromolar values) of different peptides in the acute infection test are illustrated in the following Table:
The ability of the mutants obtained as described in Example 2, to inhibit the infection by the prototypic macrophage-tropic HIV-1BaL strain, was evaluated in primary cultures of activated mononuclear cells from peripheral blood. The procedure used to infect PBL and to evaluate the production of p24 antigen is described in literature (Scarlatti et al., Nat. Med. November 3:11 1259-65, 1997).

Ace-CFAYIARPLPRAHIKEYFY-NH2 [Peptide 2]
capability to inhibit the formation of syncitia (in words) [1]: increased capability to inhibit the formation of syncitia | capability to inhibit the acute infection (in words) [2]: marked increase in the capability to, inhibit the acute infection

SGKCSNPAVVFV [RANTES peptide used as control]
capability to inhibit the acute infection (in words) [2]: no antiviral activity

YTSGKCSNPAVV [B, RANTES peptide used as control]
capability to inhibit the acute infection (in words) [2]: no antiviral activity

YFYTSGKCSNPA [RANTES peptide used as control]
capability to inhibit the acute infection (in words) [2]: no antiviral activity

Ace-FAYIARPLPRAHIKEYFY-NH2 (Ac-FAYIARPLPRAHIKEYFY-NH2) [Peptide 1]
capability to inhibit the formation of syncitia (in words) [1]: increased capability to inhibit the formation of syncitia | capability to inhibit the acute infection (in words) [2]: marked increase in the capability to, inhibit the acute infection
